The nature of series [1]: Plasma concentrations of phenserine and its metabolites in wistar rat plasma. The note with it: in vivo; for concentration at 1 h: Hour 1; for concentration at 2 h: Hour 2.
Series [2] can be described thus: Plasma concentrations of phenserine and its metabolites in beagle dog plasma. Type of series: in vivo. The note with it: beagle, in vivo; for concentration at 1 h: Hour 1; for concentration at 2 h: Hour 2; for concentration at 3 h: Hour 3; for concentration at 4 h: Hour 4.
Another series can be described thus: clinical. The settings on record: for t1/2 /Elim / Estimated Brain CMax: 15 mg immediate release dose; for Estimated Brain CMax: from plasma CMax and brain:plasma partitioning; for Cmax: human, in vivo, 15 mg. An excerpt:
FIGS. 33-34 depict two graphs from an Excel spreadsheet. FIG. 33 is a linear plot of plasma level vs time and FIG. 34 is a semi-log plot of plasma conc. vs time.

The conditions of series [3]: in vivo.
Series [4] is described as follows: Estimated EC50/IC50 of phenserine and metabolites for pharmacological activity in brain.
The nature of series [5]: Plasma concentrations of phenserine and its metabolites in human plasma. The settings on record: both sexes, in vivo; for concentration at 1 h: Hour 1; for concentration at 2 h: Hour 2; for concentration at 3 h: Hour 3; for concentration at 4 h: Hour 4. Type of series: in vivo. On the procedure:
The relationship between pharmacokinetic and pharmacodynamics evaluated in FIG. 15 was evaluated in aged volunteers. A total of 32 subjects (60-80 years of age, 11 males/21 females) were screened and enrolled. All participants provided informed consent, the conduct of the study were approved and overseen by the local Review IRB.
For pharmacokinetic (blood concentrations of primary drug and select metabolites) a dose […] additionally was evaluated.
These were centrifuged within 15 min of collection, and stored in a freezer at −70° C. freezer in marked polypropylene tubes until analysis. Phenserine levels were quantified by liquid chromatography/mass spectrometry (LC/MS/MS). In brief, analyses were undertaken on Perkin-Elmer (PE, Norwalk, USA) high performance liquid chromatographic (HPLC) instrumentation. Compound separation was performed on a Phenomenex LUNA C18 column (5 μM, 2.0 mm×150 mm; Torrance, USA), with a Phenomenex guard column (2 mm×30 mm). The mobile phase was 60% acetonitrile (HPLC grade) plus 40% ammonium acetate (v/v) with a flow rate of 0.4 mL/min. […] Thereafter, 2 mL of tert-butyl methyl ether was added and the sample was mixed and flash frozen. The organic layer was decanted, dried under a stream of nitrogen and reconstituted into 250 μL of mobile phase. Of this, a 60 μL sample was then injected into the HPLC.

The test system of another series is SH-SY5Y cells. Nature of the series: Cell proliferation of SH-SY5Y cells (MTS assay). Type of series: cell-based, human. The note with it: 30 uM, 24 hr. On the procedure: SHSYSY cells were exposed for 24 hr to 30 uM concentration of (−)- and (+)-phenserine. After 24 hr cell proliferation was determined by MTS assay. *P,0.05, **p,0.01, and ***p,0.001 compared to control samples without drug.

Another series deals with SH-SY5Y neuronal cells. Briefly: Phenserine plus anti-inflammatory drug, oxidative stress and trophic effects in SH-SY5Y cells (MTS assay). On the procedure: Human SH-SY5Y neuronal cells were seeded in 96-well plates at a density of 1×10^5 cells per well and allowed to grow for 24 hr. […] […] At 18 hr thereafter a MTS assay was performed per the manufacturers protocol (Abcam, Cambridge, Mass.) to measure cell viability.
For example, instead of aspirin (as shown in FIG. 3A), an NSAID, naproxen, was used under the same experimental conditions at concentrations in FIGS. 3B-3D.

This is an account of results in US10864192B2, “Compositions and methods for inhibiting brain trauma-induced neurodegeneration and related conditions” (priority 2016, dated 2020).

Where “and” joins values, the source holds several entries; their conditions need not be identical. Identical values can stand only once. Like-named read-outs stand apart in the source and are kept apart here. Bounds are passed on as bounds.

As for `CN1c2ccc(OC(=O)Nc3ccccc3)cc2[C@]2(C)CCN[C@H]12` [N1-nor-phenserine, (−)-N1-norphenylcarbamoyleseroline], in series [1], the concentration at 1 h is 37.6 ng/mL and the concentration at 2 h was 26.2 ng/mL. Besides, in series [2], the concentration at 1 h amounted to 86.1 ng/mL, the concentration at 2 h was 50.3 ng/mL, the concentration at 3 h came out at 86.7 ng/mL and the concentration at 4 h is 41.9 ng/mL. In the series “clinical”, the “t1/2 /Elim” value was in the range of 1.90 to 1.96 h; the “Estimated Brain CMax” value is 2.15 ng/ml and 6.6 nM; the highest concentration (Cmax) (as a rule, the maximum level reached in the sampled fluid or tissue) was 1.56 ng/mL and 4.8 nM. In “clinical” (targeted 30 mg/d or 60 mg/d in sustained release formulation), this compound displayed an expected plasma levels of more than 1.0 ng/mL. Also, the “brain:blood partition” value in series [3] is “approx. 4:1”. In addition, the “Estimated EC50” value in series [4] is on record as 24-100 NanoMolar. In addition, in series [5], the concentration at 1 h is 1.56 ng/mL, the concentration at 2 h turned out to be 1.19 ng/mL, the concentration at 3 h worked out at 0.8 ng/mL and the concentration at 4 h was determined as 0.53 ng/mL.
As for `CN1CC[C@]2(C)c3cc(OC(=O)Nc4ccccc4)ccc3N(C)[C@H]12` [(+)-phenserine, reference compound], in the series with SH-SY5Y cells, the “cell proliferation (neurotrophic actions)” value is reported as “increasing cellular proliferation”.
`C[C@@]12CCN[C@@H]1Nc1ccc(OC(=O)Nc3ccccc3)cc12` [N1,N8-bisnor-phenserine, (−)-N1, N8-bisnorphenylcarbamoyleseroline]: in series [1], the concentration at 1 h was 536 ng/mL and the concentration at 2 h came out at 539 ng/mL. In series [2], the concentration at 1 h came out at 235 ng/mL, the concentration at 2 h is 220 ng/mL, the concentration at 3 h amounted to 428 ng/mL and the concentration at 4 h is 351 ng/mL. For the same compound, in the series “clinical”, the “t1/2 /Elim” value was 0.53 to 1.29 h; the Cmax is 22.5 ng/mL and 73.3 nM. The “Estimated Brain CMax” value in “clinical” (listed as N-1, N-8 BisNor P) was 28.8 ng/ml and 95.0 nM. Besides, the “brain:blood partition” value in series [3] is listed as “approx. 1.3:1”. The “Estimated EC50” value in series [4] is given as 100 NanoMolar. Moreover, the IC50 (in general, the concentration that inhibits the measured activity by half) in series [4] (BNPCE IC50+/−25, read-out: IC50 (estimated)) is 22 nM. In series [4] (pharmacological activity in brain, read-out: estimated IC50), the IC50 is 100 nM. In addition, in series [5], the concentration at 1 h was 22.5 ng/mL, the concentration at 2 h was found to be 14.5 ng/mL, the concentration at 3 h is 7.62 ng/mL and the concentration at 4 h came to 6.55 ng/mL.
For `COc1ccc2cc([C@H](C)C(=O)O)ccc2c1` [naproxen, reference compound], in the series on SH-SY5Y neuronal cells (10 nM to 100,000 nM), the “tolerability by SH-SY5Y neuronal cells” value is recorded as “well tolerated” and the trophic actions result is “does not show activity”.
In the case of `CC(=O)Oc1ccccc1C(=O)O` [ASA, acetylsalicylic acid, reference compound], the “oxidative stress-induced cellular death (cell viability)” value in the series with SH-SY5Y neuronal cells (ASA 10^−5 M, (−)-Phen 10^−7 M, 10^−6 M, H2O2 50 μM, 18 hr) is “no activity”.
Regarding `CN1CC[C@@]2(C)c3cc(OC(=O)Nc4ccccc4)ccc3N[C@@H]12` [N8-nor-phensereine, (−)-N8-norphenylcarbamoyleseroline], in series [1], the concentration at 1 h is 96.4 ng/mL and the concentration at 2 h came out at 69.2 ng/mL. Besides, in series [2], the concentration at 1 h was found to be 33.4 ng/mL, the concentration at 2 h was 28.2 ng/mL, the concentration at 3 h stood at 9.06 ng/mL and the concentration at 4 h was determined as 7.88 ng/mL. Also, in the series “clinical”, the “t1/2 /Elim” value is 1.51 to 1.76 h; the “Estimated Brain CMax” value was 17.7 ng/ml and 52.9 nM; the maximum concentration (Cmax) is 11.2 ng/mL and 34.8 nM. In addition, the “brain:blood partition” value in series [3] is recorded as “approx. 6:1”. For the same compound, the “Estimated EC50” value in series [4] was 24-100 NanoMolar. In addition, in series [5], the concentration at 1 h was found to be 11.2 ng/mL, the concentration at 2 h was found to be 7.38 ng/mL, the concentration at 3 h was 4.28 ng/mL and the concentration at 4 h amounted to 3.61 ng/mL.
